These results are taken from patent publication US20130059324A1, “SYSTEMS AND METHODS FOR MECHANICALLY STRAINED CELL CULTURE” (THE UNIVERSITY OF KANSAS, priority 2010, published 2013).

Data set [1] deals with NCI-H358 cells. Description: Drug exposure with or without simulated forces, 6-well Bioflex plates, live cell count and exponential growth model. Type of data set: cell-based, human. An excerpt:
Treatments 1, 2 and 3 served as unstretched controls for Treatments 4, 5 and 6, respectively. For each cell line and drug, all treatments were independently repeated at least 3 times on different days, with 3 replicates per Treatments 1 and 4 (n=9) and 5 replicates per all other treatments (n=15).
The NCI-H358 (ATCC® CRL-5807) and A549 (ATCC® CCL-185) cell lines were obtained from American Type Culture Collection (ATCC, Manassas, Va.) and cultured in RPMI-1640 (NCI-H358) and HAM's F12K (A549) media containing 10% Fetal Bovine Serum (Sigma Aldrich, St. Louis, Mo.) and 1% Penicillin Streptomycin (Sigma Aldrich). Cells were passaged in 75 cm2 culture flasks at 37° C. in 5% CO2, and trypsinized using TryplE™ Express (Gibco) containing phenol red.
Cells were plated in 6-well Bioflex® plates (Flexcell® International Corporation, Hillsborough, N.C.). Each well of the plate has a flexible elastic membrane coated with a thin layer of type I collagen. Type I collagen was chosen since it more accurately represents the physiology of lung tumor cells in vivo. The Flexcell is not configured for drug studies as described herein, and had to be modified as described herein. […] Therefore, to have the same number of cells in culture at the time of drug exposure, initial seeding densities for treatments not involving simulated forces (Treatments 1-3) and those involving forces (Treatments 4-6) were adjusted for each cell line. In Treatments 1, 2 and 3, NCI-H358 and A549 cells were plated at a density of 100,000 and 20,000 cells/well in 2 ml of corresponding media, respectively. For treatments involving simulated forces (Treatments 4-6), NCI-H358 and A549 cells were plated at a density of 170,000 and 35,000 cells/well, respectively.
After allowing the cells to adhere to the membrane for 24 hours, the plates assigned for simulated forces were stretched using the FX-4000 Tension plus unit (Flexcell® International Corporation, Hillsborough, N.C.). The Flexcell unit was configured to deliver an alternating positive and negative pressure beneath the cell culture surfaces. Negative pressure pulls the culture surface down over a stationary Delrin post on the baseplate, delivering a uniform biaxial strain to the cells, and subsequent application of positive pressure releases this distension (FIGS. 9A and 9B.) In this manner, the alternating positive and negative pressure simulates forces experienced during respiration. Culture plates experiencing forces were fitted with rubber gaskets and placed on circular loading stations in the baseplate. […] Cells were preconditioned with mechanical forces for 48 hours, in an incubator at 37° C., 5% CO2 and 95% relative humidity.
After 72 hours of initial seeding, one of the five drugs was added to Treatments 3 and 6 of each cell line. […] The IC90, concentration of the drug that inhibits the growth of 90% of the cells in a static monolayer culture, was used to assure a significant inhibition in the absence of simulated forces. To insure comparability, an aliquot of 1 ml of media without the drug was added to each well in Treatments 2 and 5. After adding the drug or 1 ml of media, the plates from Treatments 5 and 6 were placed back on the baseplate and subjected to the same force profile as before for the remaining 72 hours. Plates from Treatments 2 and 3 (without forces) were placed in the same incubator for the remaining 72 hours.
Cells were trypsinized and counted at the end of day 3 in Treatments 1 and 4, and at the end of day 6 in the other treatments, using a Beckman Coulter Vi-Cell Analyzer (Beckman Coulter, Fullerton, Calif.). To examine changes in morphology, microphotographs of A549 and NCI-H358 cells were taken at the end of Treatments 1, 2, 4 and 5 using an Olympus inverted microscope and a 10× objective.
The standard exponential cell growth model (28) was used to describe the changes in live cell counts after each treatment. […]

The test system of data set [2] is H358 cells grown as 3D tissues. Description: 3D culture antiproliferative MTS assay in collagen with and without mechanical forces. Type of data set: cell-based. To be noted: Homo sapiens, NCI-H358, 72 h, H358 3D in collagen, 72 hours exposure. How it is done:
Effects of mechanical forces on engineered 3-dimensional tumor tissues were also studied, An experiment was conducted with paclitaxel, which was tested in the presence and absence of mechanical forces in H358 cells (bronchioalveolar carcinoma) grown as 3D tissues in type 1 rat tail collagen scaffold. The cells were seeded at a density of 4×10^6 cells per well in 6-well Bioflex collagen I plates and cultured in PRMI 1640 medium The forces that were tested were configured to mimic normal respiration. After 24 hours of seeding, cells were stretched from 0% to a maximum of 20% elongation for 2 seconds followed by 2 seconds of rest continuously for 4 days. Control group included cells that were plated in collagen at the same densities and incubated for 5 days without mechanical forces. […] As a note, a computing system similar to FIG. 6 can be used to control an experiment system in order to provide predetermined cycles of mechanical strain and relaxation.
Following 24 hours of stetching, paclitaxel was added to H358 cells in ten 1:3 dilutions with starting concentrations 100 μM. […] Dose response curves were plotted and corresponding IC50 values (concentration of the drug at which 50% of the cells are inhibited) were calculated for stretched and un-stretched conditions using Graphpad Prism software.
(Tetrazolium assays rely on reduction of a dye to a coloured formazan, in cell work by metabolically active cells.)

For data set [3], the system named is A549 cells. Briefly: Prototype 96-well plate, MTS assay with and without mechanical forces. Type of data set: cell-based, human. To be noted: A549, drug at IC90, 24 hours, 490 nm. How it is done: (§1) The prototype plate was read using the Biotek plate reader at the wavelength of 490 nm until the media only wells absorbance reached 1.0. For the +M group plate, 30 ul of MTS was added to the assigned wells and kept in the incubator for the same amount of time that required for the −M group to develop and read at the same wavelength.

In data set [4] the test system is H358 cells. The data set is described as above. To be noted: drug at IC90, 24 hours, 490 nm. Type of data set: cell-based, human. How it is done: as §1
Data set [5] has as its system A549 cells.
Description: After allowing the cells to adhere to the flexible membrane of the 96 well plate for 24 hours, the loading pins and the system described in FIG. 7 to implement mechanical strain were used to deliver 20% maximum strain for 2 seconds to the plate assigned for mechanical forces (+M Group), followed by 2 seconds of rest (15 cycles per minute with an average strain of 10% per cycle) in keeping with a normal human respiration.
In a parallel experiments, the cells were treated with anti-tumor drug after 72 hours of initial seeding (after 48 hours of mechanical stretching). The drug was dissolved in dimethyl sulfoxide (DMSO) at stock concentration and added to the respective media. […] The IC90 concentrations of the drugs were then added to prototype plate.
The +M Group was subjected to continuous mechanical stretching while the −M Group plate was placed in the same incubator for additional 24 hours.
In order to quantify viability, 6 wells per treatment group for ViCell counter and 6 wells per condition for MTS were assigned to determine the cell viability. Using Vi-Cell counter, assigned wells were filled with extra 210 μl of media to keep the volume constant in all the wells. Media from the assigned wells were transferred into a 24-well plate, and the well location was recorded. About 50 μl of trypLE was added to each well and allowed to trypsinize for a maximum of ten minutes. A small amount of media from the 24-well plate was transferred back into corresponding wells of the prototype plate to collect detached cells.
Media and cells were transferred back into the corresponding well of the 24-well plate. All wells were brought to a final volume of 1.25 mL with PBS and mixed well. About 1 ml of this cell suspension was transferred to ViCell counter to determine the number of viable cells.

What is called IC50 is the concentration that inhibits the measured activity by half. Higher therefore signals a need for much substance. Regarding `CC(=O)O[C@H]1C(=O)[C@@]2(C)[C@H]([C@H](OC(=O)c3ccccc3)[C@]3(O)C[C@H](OC(=O)[C@H](O)[C@@H](NC(=O)c4ccccc4)c4ccccc4)C(C)=C1C3(C)C)[C@]1(OC(C)=O)CO[C@@H]1C[C@@H]2O` [Paclitaxel], the “Growth Rates, With forces” value in data set [1] (drug at IC90 for 3 days, 20% maximum strain, 15 cycles/minute) was −0.276 per day. The “Growth Rates, Without forces” value in data set [1] (drug at IC90 for 3 days, no forces) is reported as −0.005 per day. Also, the “Effectiveness of The Drug, Without forces (E)” value in data set [1] (percentage reduction in live cell counts, 3-day drug exposure at IC90, no forces) is 70.5%. Further, in data set [1] (percentage reduction in live cell counts, 3-day drug exposure at IC90, simulated forces), the “Effectiveness of The Drug, With forces (Ef)” value is reported as 66.8%. Further, the results for the IC50 in data set [2] (absence of mechanical stress) and in data set [2] (cells experiencing mechanical stress (0-20% elongation)) were 22.6 µM and 0.2 µM, respectively. For the same compound, the “MTS absorbance after 24 hours of drug exposure, With forces (Ef)” value in data set [3] (mechanical forces) amounted to 0.293; in data set [4] (mechanical forces), 0.345. The “MTS absorbance after 24 hours of drug exposure, Without forces (E)” value in data set [3] (no forces) was determined as 0.567; in data set [4] (no forces) it was 0.522. In data set [5], the “Effect of mechanical forces on viable cell count / cytotoxicity” value is on record as “Statistically significant reduction”.
